Test results published in US7534801B2, “Piperidinylchromen-6-ylsulfonamide compounds as 5-hydroxytryptamine-6 ligands” (Wyeth, priority 2003, dated 2009).
Counter-ions that a name gives are not always drawn.

Legend:
[1] = biological target: human cloned 5-HT6 receptors (Homo sapiens, UniProt P50406)
Chain of human cloned 5-HT6 receptors (P50406 whole entry): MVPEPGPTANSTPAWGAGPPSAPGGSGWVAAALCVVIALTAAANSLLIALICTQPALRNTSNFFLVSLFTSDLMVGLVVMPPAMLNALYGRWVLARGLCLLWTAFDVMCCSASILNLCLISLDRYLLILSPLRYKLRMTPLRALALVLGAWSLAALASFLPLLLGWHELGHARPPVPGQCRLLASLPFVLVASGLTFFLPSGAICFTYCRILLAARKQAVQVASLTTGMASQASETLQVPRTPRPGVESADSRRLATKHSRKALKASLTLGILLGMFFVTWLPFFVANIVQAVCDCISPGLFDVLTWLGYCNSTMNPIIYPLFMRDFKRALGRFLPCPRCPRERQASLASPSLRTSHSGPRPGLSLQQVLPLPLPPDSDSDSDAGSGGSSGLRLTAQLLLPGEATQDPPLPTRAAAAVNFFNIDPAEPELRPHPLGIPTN

| melting point [°C] | Ki [1] [nM] | Compound |
| --- | --- | --- |
| > 240 | 2 | O=S(=O)(Nc1ccc2c(c1)C(C1CCNCC1)=CCO2)c1ccc(Cl)cc1 [Example 15, 4-chloro-N-(4-piperidin-4-yl-2H-chromen-6-yl)benzenesulfonamide] |
|  | 12 | O=S(=O)(Nc1ccc2c(c1)C(C1CCNCC1)CCO2)c1ccccc1 (centres unmarked) [Example 23, N(4-Piperidin-4-dihydro-2H-chromen-6-yl)benzenesulfonamid Hydrochloride] |
|  | 1 | O=S(=O)(Nc1ccc2c(c1)C(C1CCNCC1)=CCO2)c1ccccc1 [Example 14, N(4-Piperidin-4-yl-2H-chromen-6-yl)benzenesulfonamide Hemihydrate] |
|  | 2 | O=S(=O)(Nc1ccc2c(c1)C(C1CCNCC1)=CCO2)c1cccc2ccccc12 [Example 16, N-(4-piperidin-4-yl-2H-chromen-6-yl)naphthalene-1-sulfonamide] |
